Data set [1] has as its system C. gattii clinical isolates. Briefly: Susceptibility to clinically available antifungals, CLSI M27-A3 microdilution. Type of data set: cell-based. As to conditions: Cryptococcus gattii. The text has this: (§1) Six clinical isolates belonging to the Cryptococcus genus were obtained from patients who attended the Instituto Nacional de Infectologia Evandro Chagas (INI), Fundação Oswaldo Cruz (FIOCRUZ), and were kindly provided by Dr. Rodrigo Almeida-Paes (INI-FIOCRUZ). To comply with ethical standards and institutional agreements between UFRJ and FIOCRUZ, patient data were not disclosed. In this sense, the C. neoformans isolates were designated CFP00213 (213), CFP00223 (223), and CFP00350 (350), while the C. gattii isolates were labeled CFP00023 (23), CFP00025 (25), and CFP00027 (27). Before each experiment, an aliquot of the culture was transferred from Sabouraud dextrose agar (2% glucose, 1% peptone, and 0.5% yeast extract) to RPMI 1640 medium (Sigma-Aldrich, St. Louis, MO, USA), pH 7.2, buffered with 0.165 M MOPS (Sigma-Aldrich, St. Louis, MO, USA). RPMI medium induces the expression of capsular polysaccharides, the primary virulence factor of Cryptococcus cells. The cultures were incubated at 37 °C for 48 h to promote cell proliferation, stimulate metabolic activation, and enhance capsular development. Yeast cell counts were determined using a Neubauer chamber.
(§2) The susceptibility profile was evaluated using the microdilution method in RPMI 1640 medium buffered with 0.165 M MOPS, following the M27-A3 protocol for yeasts established by the Clinical and Laboratory Standards Institute (CLSI). […] Each fungal isolate was classified as either wild-type or non-wild-type for each antifungal based on the epidemiological cutoff values provided in CLSI M59 ED3, 2020 [32].
On the technique in general: Broth dilution looks for growth in wells or tubes with falling amounts of substance.

In data set [2] the test system is C. neoformans clinical isolates. Described as above. Type of data set: cell-based. As to conditions: Cryptococcus neoformans.
Excerpt: as §1, §2

In data set [3] the test system is six clinical Cryptococcus isolates. The experiment in a line: Susceptibility to clinically available antifungals, all six isolates. In kind it is cell-based, Cryptococcus neoformans and Cryptococcus gattii.
Excerpt: as §1, §2

The next data set concerns G. mellonella. As to conditions: cited from earlier work.
A further data set has as its system G. mellonella larvae. Details: method as in PMID 32265890. As to conditions: cited from earlier work; for Toxicity in G. mellonella larvae: up to 500 µg/mL, within 72 h; for Mortality rate in G. mellonella larvae: 750 µg/mL.
The mark [4] stands for this setting: 24 h, C. gattii isolate 23, 37 °C.
Where [5] appears, read: 24 h, C. gattii isolate 25, 37 °C.
Setting [6] is: 24 h, C. gattii isolate 27, 37 °C.
The mark [7] stands for this setting: C. gattii isolate 23, value in brackets.
Where [8] appears, read: C. gattii isolate 25, value in brackets.
The mark [9] stands for this setting: C. gattii isolate 27, value in brackets.
The mark [10] stands for this setting: 24 h, C. neoformans isolate 213, 37 °C.
Setting [11] is: 24 h, C. neoformans isolate 223, 37 °C.
The mark [12] stands for this setting: 24 h, C. neoformans isolate 350, 37 °C.
The mark [13] stands for this setting: C. neoformans isolate 213, value in brackets.
The mark [14] stands for this setting: C. neoformans isolate 223, value in brackets.
[15] abbreviates: C. neoformans isolate 350, value in brackets.
Setting [16] is: across all six clinical Cryptococcus isolates.

The values below come from article PMC12193833, “Toxicity Assessment and Antifungal Potential of Copper(II) and Silver(I) Complexes with 1,10-Phenanthroline-5,6-dione Against Drug-Resistant Clinical Isolates of Cryptococcus gattii and Cryptococcus neoformans” (Journal of Fungi, 2025).

In brackets after ≈: the same amount, converted by molar mass.

On to `C[C@@H]1[C@H](O)[C@@H](C)/C=C/C=C/C=C/C=C/C=C/C=C/C=C/[C@H](O[C@@H]2O[C@H](C)[C@@H](O)[C@H](N)[C@@H]2O)C[C@@H]2O[C@](O)(C[C@@H](O)C[C@@H](O)[C@H](O)CC[C@@H](O)C[C@@H](O)CC(=O)O[C@H]1C)C[C@H](O)[C@H]2C(=O)O` [Amphotericin B, amphotericin B], for which the minimal inhibitory concentration (MIC) in data set [1] (setting [4]) came out at 0.03 µg/mL; in data set [1] (setting [5]) it was 0.03 µg/mL; in data set [1] (setting [6]) it was 0.03 µg/mL; in data set [1] (setting [7]), 0.03 µM; in data set [1] (setting [8]), 0.03 µM; in data set [1] (setting [9]) it was 0.03 µM. The MIC in data set [2] (setting [10]) is 0.03 µg/mL; in data set [2] (setting [11]) it was over 16 µg/mL; in data set [2] (setting [12]) it was 0.03 µg/mL; in data set [2] (setting [13]) it was 0.03 µM; in data set [2] (setting [14]), over 17.3 µM; in data set [2] (setting [15]), 0.03 µM. The same compound had an MIC in data set [3] (all other Cryptococcus isolates (except C. neoformans isolate printed as 233)) of 0.03 µg/mL (≈ 0.0325 µM).
As for `CC[C@H](C)C[C@H](C)CCCCCCCCC(=O)N[C@H]1C[C@@H](O)[C@@H](NCCN)NC(=O)[C@@H]2[C@@H](O)CCN2C(=O)[C@H]([C@H](O)CCN)NC(=O)[C@H]([C@H](O)[C@@H](O)c2ccc(O)cc2)NC(=O)[C@@H]2C[C@@H](O)CN2C(=O)[C@H]([C@@H](C)O)NC1=O` [Caspofungin, caspofungin], the MIC is over 8 µg/mL in data set [1] (setting [4]); over 8 µg/mL in data set [1] (setting [5]); over 8 µg/mL in data set [1] (setting [6]); over 7.3 µM in data set [1] (setting [7]); over 7.3 µM in data set [1] (setting [8]); over 7.3 µM in data set [1] (setting [9]). The MIC is over 8 µg/mL in data set [2] (setting [10]); over 8 µg/mL in data set [2] (setting [11]); over 8 µg/mL in data set [2] (setting [12]); over 7.3 µM in data set [2] (setting [13]); over 7.3 µM in data set [2] (setting [14]); over 7.3 µM in data set [2] (setting [15]). Moreover, the MIC in data set [3] (setting [16]) is over 8 µg/mL. In addition, in the data set with G. mellonella, the Hemocyte density entry is reported as “do not increase hemocyte density”.
As to `OC(Cn1cncn1)(Cn1cncn1)c1ccc(F)cc1F` [Fluconazole, fluconazole], the MIC is 32 µg/mL in data set [1] (setting [4]); 16 µg/mL in data set [1] (setting [5]); 16 µg/mL in data set [1] (setting [6]); 104 µM in data set [1] (setting [7]); 52.2 µM in data set [1] (setting [8]); 52.2 µM in data set [1] (setting [9]). Further, in data set [3] (setting [16]), the MIC was at least 4 µg/mL.
For `C[C@@H](c1ncncc1F)[C@](O)(Cn1cncn1)c1ccc(F)cc1F` [Voriconazole, voriconazole], the MIC worked out at 4 µg/mL in data set [1] (setting [4]); 2 µg/mL in data set [1] (setting [5]); 4 µg/mL in data set [1] (setting [6]); 11.4 µM in data set [1] (setting [7]); 5.72 µM in data set [1] (setting [8]); 11.4 µM in data set [1] (setting [9]). The MIC in data set [2] (setting [10]) amounted to 0.5 µg/mL; in data set [2] (setting [11]) it was 16 µg/mL; in data set [2] (setting [12]), 2 µg/mL; in data set [2] (setting [13]) it was 1.4 µM; in data set [2] (setting [14]), 45.8 µM; in data set [2] (setting [15]), 5.72 µM. The compound further returned an MIC in data set [3] (setting [16]) of 0.5 to 16 µg/mL (≈ 1.43 to 45.8 µM).
`[Ag+].[O-][Cl+3]([O-])([O-])[O-].c1cnc2c(c1)ccc1cccnc12.c1cnc2c(c1)ccc1cccnc12` [[Ag(1,10-phenanthroline)2]ClO4]: in the data set on G. mellonella larvae, the “Toxicity in G. mellonella larvae” value was “no toxicity”. Further, in the data set on G. mellonella, the Galiomycin expression result is reported as “increased”; the “RNA levels encoding transferrin and inducible metalloproteinase inhibitor protein (IMPI)” value is reported as “increased”.
Turning to `O.O.O=C([O-])c1ccccc1C(=O)[O-].[Mn+2].c1cnc2c(c1)ccc1cccnc12` [[Mn(phthalic acid)(1,10-phenanthroline)(H2O)2]], in the data set on G. mellonella larvae, the “Mortality rate in G. mellonella larvae” value is 40% and the “Toxicity in G. mellonella larvae” value is recorded as “no toxicity”.
As for `O.O.O.O.O.O.O.O.O.O.O.O.O.O.O.O.O=C([O-])c1cccc(C(=O)[O-])c1.O=C([O-])c1cccc(C(=O)[O-])c1.[Mn+2].[Mn+2].c1cnc2c(c1)ccc1cccnc12.c1cnc2c(c1)ccc1cccnc12.c1cnc2c(c1)ccc1cccnc12.c1cnc2c(c1)ccc1cccnc12.c1cnc2c(c1)ccc1cccnc12` [{[Mn(1,10-phenanthroline)2(H2O)2]}2(isophthalic acid)2(1,10-phenanthroline)·12H2O], in the data set with G. mellonella larvae, the “Mortality rate in G. mellonella larvae” value was 13%.
In the case of “{[Cu(3,6,9-trioxaundecanedioic acid)(1,10-phenanthroline)2]3H2O·EtOH}n”, in the data set with G. mellonella larvae, the “Mortality rate in G. mellonella larvae” value is 60% and the “Toxicity in G. mellonella larvae” value is on record as “no toxicity”.

What is called MIC is the least concentration at which growth counts as inhibited. Low values mean a more susceptible organism, high ones a less susceptible organism.
